# Reference: patent EP4818189A1, “NITROGEN-CONTAINING HETEROCYCLIC COMPOUND, AND PREPARATION METHOD AND USE THEREFOR” (Chengdu Di'ao Pharmaceutical Group Co., Ltd., priority 2023, dated 2025)
# Where a SMILES comes first, the peptide text is derived from it. [ ]: non-standard residue; d: D form. The star is where a group is joined. pGlu = O=C1CC[C@@H](C(=O)O)N1; Aze = O=C(O)[C@@H]1CCN1; dAze = O=C(O)[C@H]1CCN1; Bz = O=C(c1ccccc1)*
# Columns and labels:
# CUMS model mice [1] = experiment: Forced swimming test in CUMS model mice, intravenous administration; type: in vivo, C57/B6 mice; settings: single i.v. dose 100 mg/kg, test 2 hours later (FIG. 3)
# Description: (§1) 6-8-week-old C57/B6 mice (purchased from: Jinan Pengyue Laboratory Animal Breeding Co., Ltd.) were used to establish a 28-day chronic unpredictable mild stress (CUMS) animal model, and an experimental procedure referred to document description^[1,2]. After one week of acclimatization, seven experiments, including food and water deprivation, foot shock, wet bedding, cage tilting, restraint stress, shaker stress, and olfactory stimulation, were randomly applied to the animals within one week to achieve unpredictability, and the stimulation was continued for 4 consecutive weeks. The successful establishment of the model was verified by an open field test (OFT)^[3], and then pharmacodynamic evaluation was carried out. The animals were divided into a blank control group (Control), a model group (Model), a vehicle control group (Vehicle), a fluoxetine control group and a compound group in the experiment. The test compound was intravenously (i.v.) administered once at a dose of 100 mg/kg, a tail suspension test (TST) and a forced swimming test (FST)^[4,5] were carried out 2 hours later to evaluate the depression of the mice, and prolonged immobility time in the TST and the FST indicated behavioral despair of the mice. After summary statistics of data, SPSS data statistics software was used for analysis, and Graph Pad software was used for graph generation based on SPSS analysis results.
# [2] = Mouse pharmacokinetic detection; type: in vivo; settings: CD1 mice
# Method: The detection was carried out in 6-8-week-old CD1 mice (purchased from: Speifu (Beijing) Biotechnology Co., Ltd.). […] The concentration of the compound in a plasma sample was analyzed by LC-MS/MS. Pharmacokinetic calculation was carried out by using WinNonlin (Phoenix™, Version 8.3) or other similar software. The following pharmacokinetic parameters were calculated based on plasma concentration and time data: Oral administration: AUClast, bioavailability (F). Statistical calculation was carried out on the above parameter data. Table 3 Pharmacokinetic data of some compounds administered orally in mice
# CUMS model mice [3] = experiment: Tail suspension test in CUMS model mice, intravenous administration; type: in vivo, C57/B6 mice; settings: single i.v. dose 100 mg/kg, test 2 hours later (FIG. 4)
# Description: as §1
# [4] = Plasma stability determination; type: in vitro ADME; settings: mouse
# Method: Mouse plasma (purchased from IPHASE, Batch No. 23B007) was thawed in a 37°C water bath, centrifuged to remove an upper clot, and the pH value was recorded as 7-8. An appropriate volume of stock solution of test compound in acetonitrile (at a concentration of 10 mM) was diluted with acetonitrile to 1 mM, so as to serve as a test drug solution. An appropriate volume of test drug solution was added to a corresponding volume of plasma and mixed uniformly, such that the concentration of the test compound in the incubation system was 5 µM, and the content of the organic solvent acetonitrile was 0.5%. 50 µL of mixed plasma was transferred into a 96-well plate (N=2), incubated at 37°C in a water bath for a designated time, and then added with 300 µL of internal standard-containing methanol solution to terminate the reaction. The reaction mixture was vortexed and centrifuged, and the supernatant was subjected to LC-MS/MS analysis. Propantheline and ZZL-7 were used as positive controls, and processed and tested under the same conditions as the test compound. A curve was plotted with the remaining percentage of the compound against incubation time to obtain a k value, and the half-life of each compound was calculated.
# [5] = Rat pharmacokinetic detection; type: in vivo; settings: plasma, male SD rats; for AUC(0-t): oral gavage 15 mg/kg; for bioavailability: oral gavage 15 mg/kg vs intravenous 10 mg/kg
# Method: The detection was carried out in 6-8-week-old male SD rats (purchased from:SPF (Beijing) Biotechnology Co., Ltd.). A test compound was dissolved in a solution containing 10% DMSO, 15% Solutol HS and 75% (aqueous solution of 10% hydroxypropyl-β-cyclodextrin), and administered via intravenous injection (10 mg/kg) or oral gavage (15 mg/kg). A concentration of the compound in a plasma sample was analyzed by LC-MS/MS. Pharmacokinetic calculation was carried out by using WinNonlin (Phoenix™, Version 8.3). The following pharmacokinetic parameters were calculated based on plasma concentration and time data: Oral administration: AUClast, bioavailability (F). Statistical calculation was carried out on the above parameter data. Table 4 Pharmacokinetic data of some compounds administered orally in rats
# MDR1-MDCK II cells = experiment: Permeability detection in MDR1-MDCK II cell monolayer; type: in vitro ADME; settings: permeability rank
# Method: (§2) MDR1-MDCK II cells (imported from the Netherlands Cancer Institute) were seeded in a 96-well cell plate at a density of 3.33×10^5 cells/mL, and cultured in a carbon dioxide incubator for 4-7 days to form a cell monolayer. A Hank's balanced salt solution (HBSS, pH 7.40 ± 0.05) containing 10.0 mM 4-(2-hydroxyethyl)-1-piperazineethanesulfonic acid (HEPES) was used as a transport buffer. A DMSO stock solution of compound was diluted to 2 µM (DMSO < 1.0%) with the transport buffer, and added to the basolateral (B) side and apical (A) side respectively (N=2). The bidirectional (A-B and B-A) incubation concentration of Digoxin, a P-gp substrate, was 10 µM, and the unidirectional (A-B) incubateion concentrations of Nadolol, a low-permeability control, and Metoprolol, a high-permeability control, were 2 µM. The cell plate was incubated in a 5% CO2 cell incubator at 37°C and saturated humidity for 2.5 hours, then final samples from a receiver side and a donor side were collected, added with the transport buffer and a precipitant at an appropriate ratio, and analyzed by LC-MS/MS, and an apparent permeability coefficient, an efflux ratio and a solution recovery were calculated.
# (§3) After the transport experiment was completed, an integrity of the MDR1-MDCK II cell layer was detected by a lucifer yellow detection experiment. Residual solution in apical and basolateral wells was removed, and 75 µL of transport buffer containing 100 µM lucifer yellow was added to the apical wells and 250 µL of transport buffer was added to the basolateral wells respectively. The cell plate was incubated in a 5% CO2 cell incubator at 37 °C and saturated humidity for 30 minutes, then 20 µL of sample was taken from the apical side and mixed with 60 µL of transport buffer and 80 µL of sample was taken from the basolateral side. A relative fluorescence intensity was detected by a microplate reader at excitation/emission wavelengths of 425/528 nm, and the permeability of Lucifer Yellow was calculated.
# (§4) The apparent permeability coefficient (Papp), efflux ratio (ER) and %solution recovery were respectively calculated by following formulas: Papp = (VR)/(Area × Time) × ([drug]receiver)/([drug]initial,donor) = (VR)/(Area × Time) × (CR)/(C0) [formula] Efflux Ratio = (Papp (B−A))/(Papp (A−B)) [formula] %Solution Recovery = (CR × VR + CD × VD)/(C0 × VD) × 100 [formula]
# (§5) VR was the volume of solution in the receiver side (0.075 mL for the apical side and 0.25 mL for the basolateral side respectively), VD was the volume of solution in the donor side (0.075 mL for the apical side and 0.25 mL for the basolateral side respectively), CR was the peak area ratio of compound in the receiver side, CD was the peak area ratio of compound in the donor side, C0 was the initial peak area ratio of compound in the donor side, Area was the surface area (0.143 cm^2) of the cell monolayer, and Time was incubation time of 9000 seconds (150 minutes). Papp(B-A) and Papp(A-B) respectively referred to the apparent permeability coefficient from the basolateral side to the apical side and the apparent permeability coefficient from the apical side to the basolateral side.
# (§6) The permeability of Lucifer Yellow(%Lucifer Yellow) was calculated by the following formula: %Lucifer Yellow = (VBasolateral × RFUBasolateral)/(VApical × RFUApical + VBasolateral × RFUBasolateral) × 100 [formula]
# (§7) RFUApical and RFUBasolareral respectively referred to relative fluorescence intensities of lucifer yellow in the apical side and the basolateral side. VApical and VBasolateral respectively referred to loading volumes (0.075 mL and 0.25 mL respectively) in the apical side and the basolateral side. Table 2 Permeability data of some compounds
# [6] = as above; type: in vitro ADME; settings: dog, pH 7.4, MDR1-MDCK II cells, 2 µM, 2.5 hours; for Papp A→B at 2.5 h, 2 µM: apical to basolateral; for Papp B→A at 2.5 h, 2 µM: basolateral to apical
# Method: as §2, §3, §4, §5, §6, §7
# [7] = plasma, oral gavage 10 mg/kg vs intravenous 10 mg/kg
# [8] = plasma, ZZL-7 administered at 100 mg/kg via PO
Structure (SMILES),"AUC(0-t) ([2]; plasma, oral gavage 10 mg/kg) [ng·h/mL]","bioavailability [2, 7] [%]",half-life at 5 µM [4] [h],other results
COC(=O)[C@@H](NC(=O)c1cnc(C)[nH]1)C(C)C [A-1-1],629,35.3,–,immobility time in the forced swimming test (CUMS model mice [1]): rapidly reverse the prolonged immobility time; immobility time in the tail suspension test (CUMS model mice [3]): rapidly reverse the prolonged immobility time
COC(=O)[C@@H](NC(=O)C1CCN1C(=O)C1CC1)C(C)C (stereo partly drawn) [A-2-2],405,21.5,–,–
[2H]C([2H])([2H])OC(=O)[C@@H](NC(=O)C1CCN1C(C)=O)C(C)C (stereo partly drawn) [A-2-4],3770,80.2,–,–
COC(=O)[C@@H](NC(=O)[C@@H]1CCN1C(C)=O)C(C)C [A-2-6] (Ac-[Aze]-Val-OMe),3340,148,–,–
COC(=O)[C@@H](NC(=O)[C@H]1CCN1C(C)=O)C(C)C [A-2-7] (Ac-[dAze]-Val-OMe),3990,83.9,–,–
[2H]C([2H])([2H])C(=O)N1CC[C@H]1C(=O)N[C@H](C(=O)OC)C(C)C [A-2-8],3310,88.5,–,–
[2H]C([2H])([2H])C(=O)N1CC[C@@H]1C(=O)N[C@H](C(=O)OC)C(C)C [A-2-9],5250,84.7,–,–
COC(=O)[C@@H](NC(=O)[C@@H]1CCN1C(=O)C1CC1)C(C)C [A-2-21],–,–,> 4.82,–
COC(=O)[C@@H](NC(=O)[C@H]1CCN1C(=O)c1ccccc1)C(C)C [A-2-22] (Bz-[dAze]-Val-OMe),–,–,> 4.82,–
COC(=O)[C@@H](NC(=O)[C@@H]1CCN1C(=O)c1ccccc1)C(C)C [A-2-23] (Bz-[Aze]-Val-OMe),–,–,> 4.82,–
COC(=O)[C@@H](NC(=O)[C@H]1CCN1C(=O)c1ccc(C(F)(F)F)cc1)C(C)C [A-2-24],–,–,> 4.82,–
COC(=O)[C@@H](NC(=O)[C@@H]1CCN1C(=O)c1ccc(C(F)(F)F)cc1)C(C)C [A-2-25],–,–,3.24,–
CC(=O)N1CCC1C(=O)N[C@H](c1ncc[nH]1)C(C)C (stereo partly drawn) [B-2-1],1660,44.9,–,–
[2H]C([2H])([2H])C(=O)N1CC[C@H]1C(=O)N[C@H](c1ncco1)C(C)C [B-2-2],–,–,–,"AUC(0-t) ([2]; in vivo, oral gavage 10 mg/kg): 6950 ng·h/mL; bioavailability ([2]; in vivo, oral gavage 10 mg/kg vs intravenous 10 mg/kg): 153%"
CC(=O)N1CC[C@@H]1C(=O)N[C@@H](c1ccccn1)C(C)C [B-2-8],2550,72.5,> 4.82,–
CC(=O)N1CC[C@@H]1C(=O)NC(c1cc2ccccc2[nH]1)C(C)C (stereo partly drawn) [B-2-33],3360,68.3,> 4.82,–
"CC(C)C[C@H](NC(=O)[C@@H]1CCC(=O)N1)C(=O)O [D4-pEL, reference compound] ([pGlu]-Leu-OH)",555,7.7,–,"AUC(0-t) [5]: 98.6 ng·h/mL; bioavailability [5]: 1.04%; Rank Papp (MDR1-MDCK II cells): Low; Papp A→B at 2.5 h, 2 µM [6]: < 0.216 ×10⁻⁶ cm/s; Papp B→A at 2.5 h, 2 µM [6]: 0.302 ×10⁻⁶ cm/s"
"C[C@H](NC(=O)[C@@H]1CCCN1)C(=O)O [D5-PA, reference compound] (H-Pro-Ala-OH)",38,3.8,0.877,"AUC(0-t) [5]: 11.5 ng·h/mL; bioavailability [5]: 0.71%; Rank Papp (MDR1-MDCK II cells): Low; Papp A→B at 2.5 h, 2 µM [6]: 0.15 ×10⁻⁶ cm/s; Papp B→A at 2.5 h, 2 µM [6]: 0.3 ×10⁻⁶ cm/s"

# Further lines, with some results ahead:
"AUC(0-t) ([2]; plasma, oral gavage 10 mg/kg) [ng·h/mL]","bioavailability [2, 7] [%]",half-life at 5 µM [4] [h],Structure (SMILES),other results
–,–,3.83,COC(=O)[C@@H](NC(=O)[C@H]1CCN1C(=O)c1ccc(F)cc1)C(C)C [A-2-26],–
–,–,4.75,COC(=O)[C@@H](NC(=O)[C@@H]1CCN1C(=O)c1ccc(F)cc1)C(C)C [A-2-27],–
–,–,3.78,COC(=O)[C@@H](NC(=O)[C@@H]1CCN1C(=O)c1ccc(Cl)cc1)C(C)C [A-2-29],–
–,–,> 4.82,COC(=O)[C@@H](NC(=O)[C@@H]1CCN1C(=O)c1ccco1)C(C)C [A-2-31],–
–,–,> 4.82,COC(=O)[C@@H](NC(=O)[C@@H]1CCN1C(=O)c1cccs1)C(C)C [A-2-33],–
–,–,> 4.82,COc1ccc(C(NC(=O)[C@H]2CCN2C(C)=O)C(C)C)cc1 (stereo partly drawn) [B-2-24],–
–,–,> 4.82,[2H]C([2H])([2H])C(=O)N1CC[C@H]1C(=O)N[C@@H](c1ncco1)C(C)C [B-2-42],–
–,–,0.417,"CC(C)[N+](C)(CCOC(=O)C1c2ccccc2Oc2ccccc21)C(C)C [Propantheline, reference compound]",–
–,–,0.421,"COC(=O)[C@@H](NC(=O)[C@H](C)NC(C)=O)C(C)C [ZZL-7, acetyl-L-alanyl-L-valine methyl ester, reference compound] (Ac-Ala-Val-OMe)","AUC(0-t) [2, 8]: 138 ng·h/mL; bioavailability [2, 8]: 7.5%"
